Consider one sequence from patent US7687465B2, “Therapeutic cancer vaccine” (Kraeftens Bekaempelse, priority 2003, dated 2010).

The test system of the assay is PBL from HLA-A3 antigen positive melanoma patients. Put plainly: ELISPOT in PBL from HLA-A3 antigen positive melanoma patients. It counts as cell-based, human. As to the method: T-cell response against the ML-IAP245-253 ([…]) peptide as measured in an ELISPOT in PBL from 14 melanoma patients. T-lymphocytes were stimulated once with peptide before plated in triplicates either without or with peptide. The average number of peptide specific cells (after subtraction of spots without added peptide) was calculated for each patient as the number of spot forming cells per 10^5 CD8 positive cells after subtraction of the number of background spots formed without addition of peptide using the ImmunoSpot® Series 2.0 Analyzer (CTL Analyzers, LLC, Cleveland, US).
To extend the sensitivity of the ELISPOT assay, PBL were stimulated once in vitro prior to analysis^17,18. At day 0, PBL or crushed lymph nodes were thawed and plated in 2 ml/well at a concentration of 2×10^6 cells in 24-well plates (Nunc, Denmark) in X-vivo medium (Bio Whittaker, Walkersville, Md.), 5% heat-inactivated human serum, and 2 mM of L-glutamine in the presence of 10 μM of peptide. […]
The ELISPOT assay used to quantify peptide epitope-specific interferon-γ-releasing effector cells was performed as described previously^19. […] The spots were counted using the AlphaImager System (Alpha Innotech, San Leandro, Calif. USA) and the peptide specific CTL frequency could be calculated from the numbers of spot-forming cells. […]

With “RLQEERTCK (listed as Homo sapiens) [mL-IAP245-253]”, the “peptide specific T-cells per 10^5 CD8+ cells” value (in the five responding patients) was “more than 200 per 10^5 CD8+ cells”. Further, the “patients hosting an immune response against the peptide” value (of 14 HLA-A3 antigen positive melanoma patients, response of more than 200 specific T-cells per 10^5 CD8+ cells) was “five”.
